BindingDB's records for doi:10.7270/Q2ZC817P (The Scripps Research Institute Molecular Screening Center, 2007)

biological target: Sphingosine 1-phosphate receptor 1 (Homo sapiens, UniProt P21453); experiment: potentiators of S1P1 agonist response, dose response, cell-based, potentiator mode, 60K MLSMR set (AID 466); details: not given
Sequence (P21453 whole entry): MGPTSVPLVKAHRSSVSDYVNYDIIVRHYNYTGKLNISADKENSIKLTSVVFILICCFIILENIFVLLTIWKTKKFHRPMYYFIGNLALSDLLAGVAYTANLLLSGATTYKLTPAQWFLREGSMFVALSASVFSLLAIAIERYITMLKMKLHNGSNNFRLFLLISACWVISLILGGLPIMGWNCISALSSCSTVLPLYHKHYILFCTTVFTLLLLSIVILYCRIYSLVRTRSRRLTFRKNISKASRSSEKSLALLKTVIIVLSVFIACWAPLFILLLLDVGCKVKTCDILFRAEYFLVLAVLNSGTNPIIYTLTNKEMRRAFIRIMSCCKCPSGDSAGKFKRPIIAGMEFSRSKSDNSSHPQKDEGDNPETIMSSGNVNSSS

Compared with `COCCn1c(C)cc(C(=O)CSc2nnc(-c3cccnc3)n2-c2ccccc2F)c1C` [2-[[4-(2-fluorophenyl)-5-(3-pyridinyl)-1,2,4-triazol-3-yl]thio]-1-[1-(2-methoxyethyl)-2,5-dimethyl-3-pyrrolyl]ethanone], `CCOC(=O)CN(C(=O)CSc1nnc(-c2cccc(OC)c2)o1)c1ccc(F)cc1` [((4-Fluoro-phenyl)-{2-[5-(3-methoxy-phenyl)-[1,3,4]oxadiazol-2-ylsulfanyl]-acetyl}-amino)-acetic acid ethyl ester] is 1.7-fold higher in EC50: 1.22 µM for the first, 2.11 µM for the second.

Compared with `OC(c1cccc(OCc2ccccc2)c1)c1nnc(-c2ccccc2)o1` (stereo not given) [(3-benzoxyphenyl)-(5-phenyl-1,3,4-oxadiazol-2-yl)methanol], `CC(C)(C)OC(=O)N[C@@H](Cc1ccccc1)c1nnc(S(=O)(=O)Cc2ccccc2)o1` [SMR000047857] is 2-fold higher in EC50: 2.65 µM for the first, 5.33 µM for the second.

`CCc1c(C)nc2ncnn2c1NCCc1ccc(OC)cc1` [(6-Ethyl-5-methyl-[1,2,4]triazolo[1,5-a]pyrimidin-7-yl)-[2-(4-methoxy-phenyl)-ethyl]-amine] and `CCOc1nc(C)ccc1-c1noc(-c2ccncc2)n1` [2-ethoxy-6-methyl-3-[5-(4-pyridinyl)-1,2,4-oxadiazol-3-yl]pyridine] are within 1.5-fold of each other in EC50: 9.1 µM for the first, 6.59 µM for the second.

First: Cc1nnc(SC(=O)N2c3ccccc3Sc3ccccc32)s1 [10-phenothiazinecarbothioic acid S-(5-methyl-1,3,4-thiadiazol-2-yl) ester]
Second: CCOC(=O)Nc1ccc2c(c1)N(C(=O)CCN(C)C)c1ccccc1S2 [MLS000038082]
The EC50 of the first is 13-fold lower: 3.63 µM for the first, 48.7 µM for the second.

`O=C(Cc1c[nH]c2ccccc12)N1CCc2ccccc21` and `Cc1csc(NC(=O)c2nc(-c3ccccc3)n(-c3ccccc3)n2)n1` [MLS000058347] are within 1.5-fold of each other in EC50: 7.74 µM for the first, 9.69 µM for the second.

First: CC(C)OC(=O)CSc1nc(N)c(C#N)c(-c2cccs2)c1C#N [2-[(6-amino-3,5-dicyano-4-thiophen-2-yl-2-pyridinyl)thio]acetic acid propan-2-yl ester]
Second: CC(=N)C(C#N)C(=O)CSc1nnc(SCc2ccc(Cl)cc2)s1 (stereo not given) [(E)-3-amino-2-[2-[[5-[(4-chlorobenzyl)thio]-1,3,4-thiadiazol-2-yl]thio]acetyl]but-2-enenitrile]
The EC50 of the first is higher: over 30 µM for the first, 9.63 µM for the second. The second is the more potent here.

First: COc1ccc(CNC(=O)c2cc3c(C)nc4ccccc4c3o2)c(OC)c1 [MLS000118441]
Second: COc1cc2c(cc1OC)C(C)N(C(=O)c1cc3ccccc3o1)CC2 (stereo not given) [1-benzofuran-2-yl-(6,7-dimethoxy-1-methyl-3,4-dihydro-1H-isoquinolin-2-yl)methanone]
The EC50 of the first is lower: 5.06 µM for the first, over 30 µM for the second. The first is the more potent here.

Going from `CC1CCCC(C)N1C(=O)CN1CCN(c2nc(-c3ccc(F)cc3)cs2)CC1` (stereo not given) [1-(2,6-Dimethyl-piperidin-1-yl)-2-{4-[4-(4-fluoro-phenyl)-thiazol-2-yl]-piperazin-1-yl}-ethanone] to `CCOC(=O)N1CCN(C(=O)C2CCN(c3ncnc4c3sc3cccc(F)c34)CC2)CC1` [4-[1-(9-fluorobenzothiopheno[3,2-d]pyrimidin-4-yl)isonipecotoyl]piperazine-1-carboxylic acid ethyl ester], the EC50 falls from over 10 µM to 6.63 µM. The second is the more potent here.

`O=S1(=O)C=C(Sc2nc3cc(Cl)ccc3o2)c2ccccc21` [SMR000019512] and `CCN(CC)C(=O)C1CCN(S(=O)(=O)c2ccc3oc4ccccc4c3c2)CC1` [1-(2-dibenzofuranylsulfonyl)-N,N-diethyl-4-piperidinecarboxamide] cannot be ordered by EC50: over 30 µM for the first, over 30 µM for the second.

Going from `O=c1c(-c2ccc3c(c2)OCCO3)c(C(F)(F)F)oc2cc(O)cc(O)c12` [3-(2,3-dihydro-1,4-benzodioxin-6-yl)-5,7-bis(oxidanyl)-2-(trifluoromethyl)chromen-4-one] to `Cc1ccc(O)c(NC(=O)CCC2CCCCC2)c1` [3-cyclohexyl-N-(2-hydroxy-5-methyl-phenyl)propionamide], the EC50 rises from 3.83 µM to over 95 µM.

Compared with `COc1ccc(C(=O)C2C(=O)C(=O)N(CC3CCCO3)C2c2cccc(OC)c2)cc1` (stereo not given) [(4Z)-4-[hydroxy-(4-methoxyphenyl)methylene]-5-(3-methoxyphenyl)-1-(tetrahydrofurfuryl)pyrrolidine-2,3-quinone], `COC(=O)c1ccc2c(=O)n(C3CCCCC3)c(SCC#N)nc2c1` [2-(cyanomethylthio)-3-cyclohexyl-4-keto-quinazoline-7-carboxylic acid methyl ester] is lower in EC50: over 95 µM for the first, 6.9 µM for the second.

`C=CS(=O)(=O)c1ccc(Oc2ccc(S(=O)(=O)C=C)cc2)cc1` [1-ethenylsulfonyl-4-(4-ethenylsulfonylphenoxy)benzene] and `CCc1ccc(-c2nc(-c3ccncc3)no2)cc1` [5-(4-ethylphenyl)-3-(4-pyridyl)-1,2,4-oxadiazole] are within 1.5-fold of each other in EC50: 3.31 µM for the first, 4.41 µM for the second.

First: O=C(Nc1ncc(Br)s1)C(Cc1ccccc1)n1cccc1 (stereo not given) [MLS000119027]
Second: CCOc1ccccc1OCCCCCc1c(C)n[nH]c1C [MLS000043342]
The EC50 of the first is 2.3-fold higher: 2.92 µM for the first, 1.27 µM for the second. The second is the more potent here.

Compound `CCN(C(=O)C1CCCCC1)c1nnc(-c2cccnc2)s1` [Cyclohexanecarboxylic acid ethyl-(5-pyridin-3-yl-[1,3,4]thiadiazol-2-yl)-amide] has an EC50 of 1.75 µM.

same assay, conditions: inactive by the depositor's call

`Oc1ccc(N2CCN(c3ncnc4sc5c(c34)CCC5)CC2)cc1` [4-[4-(7,8-dihydro-6H-cyclopenta[4,5]thieno[1,2-c]pyrimidin-1-yl)-1-piperazinyl]phenol] and `c1ccc(N2CCN(Cc3ccnc4ccccc34)CC2)cc1` [4-[(4-phenyl-1-piperazinyl)methyl]quinoline] are the same in EC50: 10.6 µM for the first, 10.6 µM for the second.

`O=C(CSc1nnc(-c2ccc(Cl)cc2)n1Cc1ccco1)c1cccs1` [2-[[5-(4-chlorophenyl)-4-(2-furanylmethyl)-1,2,4-triazol-3-yl]thio]-1-thiophen-2-ylethanone] and `CC(C)(C)NC(=O)CSc1ncnc2c1nnn2Cc1ccccc1Cl` [MLS000034488] are within 1.5-fold of each other in EC50: 13.8 µM for the first, 12.7 µM for the second.

First: COc1cccc(-c2nnc3sc(C4CCCCC4)nn23)c1 [6-cyclohexyl-3-(3-methoxyphenyl)-[1,2,4]triazolo[3,4-b][1,3,4]thiadiazole]
Second: COc1cccc(-c2csc(N3CCN(CC(=O)Nc4ccc5c(c4)OCO5)CC3)n2)c1 [MLS000070935]
The EC50 of the first is 1.7-fold higher: 30.6 µM for the first, 17.9 µM for the second.

`CC(C)Cn1c(=O)c(C(=O)Nc2ccccc2S(N)(=O)=O)c(O)c2ccccc21` [1-(2-methylpropyl)-2-oxidanyl-4-oxidanylidene-N-(2-sulfamoylphenyl)quinoline-3-carboxamide] and `Cc1ccc(C(=O)Nc2nc(COc3ccccc3)cs2)s1` [5-methyl-N-[4-(phenoxymethyl)-1,3-thiazol-2-yl]thiophene-2-carboxamide] are within 1.5-fold of each other in EC50: 14.4 µM for the first, 11.2 µM for the second.

`CCCn1c(CN2CCN(c3cccc(Cl)c3)CC2)nc2c1c(=O)n(C)c(=O)n2C` [8-[[4-(3-chlorophenyl)-1-piperazinyl]methyl]-1,3-dimethyl-7-propylpurine-2,6-dione] and `CC(=O)Nc1ccc(S(=O)(=O)N2CCN(CCCOc3cc(C)ccc3C)CC2)cc1` [MLS000050317] are within 1.5-fold of each other in EC50: 18.8 µM for the first, 17.5 µM for the second.

`CCCOC(=O)c1[nH]c2c(c1C)C(=O)CC(c1cc(OC)c(OC)c(OC)c1)C2` (stereo not given) [MLS000116504] and `COc1ccc(CNc2cc(C)nc3ncnn23)c(OC)c1` [(2,4-Dimethoxy-benzyl)-(5-methyl-[1,2,4]triazolo[1,5-a]pyrimidin-7-yl)-amine] are within 1.5-fold of each other in EC50: 12.9 µM for the first, 16 µM for the second.

For `O=C(CSCC(=O)N1CCCCC1)Nc1nc(-c2cccs2)cs1` [2-(2-oxidanylidene-2-piperidin-1-yl-ethyl)sulfanyl-N-(4-thiophen-2-yl-1,3-thiazol-2-yl)ethanamide], the EC50 was 45.2 µM.
